The nature of data set [1]: HPLC assay of the impurity of the Formula (II) in the duloxetine salt obtained. It is filed as physicochemical. The settings on record: rearrangement product of duloxetine, salt as obtained, limit of detection 0.01 percent by weight. As to the method:
The limit of detection for the compound of the Formula (II) is a feature of the high-performance liquid chromatographic method used for the assay thereof. Using the chromatographic method disclosed in the present application, said limit of detection is 0.01 percent by weight.
The analysis is carried out using ultraviolet absorption detector under the following chromatographic conditions:
Column, Chiral OD-R, 250*4,6 mm, 10 μm particle size • Flow rate, 1.0 ml/minute • Injection volume, 10 μl • Column temperature, 40° C. • Temperature of sample compartment, 20° C. • Detection wavelength, 220 nm • Mobile phase A: solution of 40 g of sodium hydroxide and 85 ml of concentrated perchloric acid are dissolved in 200 ml of distilled water, pH 2.1 • B: acetonitrile • Eluent composition, isocratic, 55 percent by volume mobile phase A • Analysis time, 30 minutes • Sample concentration, 10 mg/10 ml • Sample solvent, water-acetonitrile 80:20 volume/volume • Needle wash, water-acetonitrile […] volume/volume • Selectivity factor, >4 • Number of theoretical plates, min. 10000 • Asymmetry factor, <2
The assay is carried out according to the requirements of the pharmacopoeia regarding the determination of the impurities.
A sample containing approximately 100 mg of duloxetine is thoroughly homogenized in a mortar, weighed with analytical precision and transferred into a suitable volumetric flask. 80 ml of 80:20 volume by volume mixture of water and acetonitrile are added to the sample and the suspension is shaked in an ultrasonic bath for 10 minutes at the temperature of 25° C. The suspension is filtered and completed to 100 ml with the extraction solvent.

Data set [2] can be described thus: Stability testing of duloxetine-containing medicinal products (HPLC, mass spectrometry). The settings on record: during manufacture of the salt and during shelf-life of the medicinal products prepared from it. It is filed as physicochemical. How it is done:
During the process of stability testing, the identity and concentration of individual impurities present in the medicinal product are determined as the function of time and storage conditions. In the aforementioned tests, generally high-performance liquid chromatography and mass spectrometry are used as analytical methods.
In order to identify the above mentioned impurities, each of them has been separated by high-performance liquid chromatography and their molecular weight was determined by mass spectrometry.
Subsequently, the compound of the Formula (II) has been prepared by the rearrangement of duloxetine hydrobromide in pure form and in good yield and the thus obtained product was subjected to structure elucidation. The identity of the thus obtained (±)-N-methyl-3-(2-thienyl)-3-(4-hydroxy-1-naphtyl)-propylamine of the Formula (II) with the impurity observed during the stability testing has been established using high-performance liquid chromatography and mass spectrometry.
The following sample preparation method has been used during the stability testing of duloxetine-containing medicinals products and assay of duloxetine active ingredients.
A sample containing approximately 100 mg of duloxetine is thoroughly homogenized in a mortar, weighed with analytical precision and transferred into a suitable volumetric flask. 80 ml of 80:20 volume by volume mixture of water and acetonitrile are added to the sample and the suspension is shaked in an ultrasonic bath for 10 minutes at the temperature of 25° C. The suspension is filtered and completed to 100 ml with the extraction solvent. A 10-μl portion of the thus obtained solution is analyzed by the high-performance liquid chromatographic method of Example 9.

For data set [3] the following is noted: preparation of salts with strong mineral acids, especially hydrobromic acid; 25 to 50° C.

Here are results for six molecules from patent US20090209617A1, “DULOXETINE SALTS” (priority 2006, published 2009).

Counter-ions that a name gives are not always drawn.

A word on the melting point: it is the temperature, or range, at which the solid turns liquid.

In the case of “(+)-N-methyl-3-(1-naphtyloxy)-3-(2-thienyl)-propylamine citrate (1:1) [Example 1]”, the “amount of the impurity of the Formula (II) in the product” value (shortened to “amount of the impurity of the Formula”) in data set [1] was “less than 0.01 percent by weight”. The “formation of (±)-N-methyl-3-(2-thienyl)-3-(4-hydroxy-1-naphtyl)-propylamine of the Formula (II)” value (from here on “formation”) in data set [2] is “can be detected neither during the manufacture of the above-mentioned particularly preferable salts, nor during the shelf-life”. Molecule `CNCCC(c1cccs1)c1ccc(O)c2ccccc12` (racemic) registered a melting point of 190 to 196 °C. Regarding `CNCCC(Oc1cccc2ccccc12)c1cccs1.O=C(O)C(O)c1ccccc1` (stereo not drawn) [Example 3, (+)-N-methyl-3-(1-naphtyloxy)-3-(2-thienyl)-propylamine(−)-mandelate (1:1)], the “amount of the impurity of the Formula” value in data set [1] is recorded as “less than 0.01 percent by weight”. In data set [2], the “formation” value is “can be detected neither during the manufacture of the above-mentioned particularly preferable salts, nor during the shelf-life”.

For the molecule `CNCC[C@H](Oc1cccc2ccccc12)c1cccs1` [Example 6, (+)-N-methyl-3-(1-naphtyloxy)-3-(2-thienyl)-propylamine hydrochloride (1:1), reference compound], the “amount of the impurity of the Formula” value in data set [1] is “approximately 0.05 percent by weight”. Take `CNCC[C@H](Oc1cccc2ccccc12)c1cccs1` [duloxetine, (+)-(S)—N-methyl-3-(1-naphtyloxy)-3-(2-thienyl)-propylamine]: the “time in which the compound of the Formula (II) forms” value in data set [3] is “a few minutes”. As for “(+)-N-methyl-3-(1-naphtyloxy)-3-(2-thienyl)-propylamine fumarate (1:1) [Example 2]”, in data set [1], the “amount of the impurity of the Formula” value was “less than 0.01 percent by weight”. Further, the “formation” value in data set [2] was “can be detected neither during the manufacture of the above-mentioned particularly preferable salts, nor during the shelf-life”.
